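Test compounds were applied to cells in 96-well plates for 48 hours at 5 doses. At the GI50, growth is halved. TGI: concentration producing complete growth inhibition.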
How the values were obtained:
Assay in all cases: NCI tumour cell line growth inhibition, 48 h
[1] = system: 786-0 renal
[2] = system: A498 renal
[3] = system: A549 NSCLC
[4] = system: ACHN renal
[5] = system: BT-549 breast
[6] = system: CAKI-1 renal
[7] = system: CCRF-CEM leukemia
[8] = system: COLO 205 colon
[9] = system: DU-145 prostate
[10] = system: EKVX NSCLC
[11] = system: HCC-2998 colon
[12] = system: HCT-116 colon
[13] = system: HCT-15 colon
[14] = system: HL-60(TB) leukemia
[15] = system: HOP-62 NSCLC
[16] = system: HOP-92 NSCLC
[17] = system: HS 578T breast
[18] = system: HT29 colon
[19] = system: IGROV1 ovarian
[20] = system: K-562 leukemia
[21] = system: KM12 colon
[22] = system: LOX IMVI melanoma
[23] = system: M14 melanoma
[24] = system: MALME-3M melanoma
[25] = system: MCF7 breast
[26] = system: MDA-MB-231 breast
[27] = system: MDA-MB-435
[28] = system: MDA-MB-468 breast
[29] = system: MOLT-4 leukemia
[30] = system: NCI-H226 lung
[31] = system: NCI-H23 lung
[32] = system: NCI-H460 lung
[33] = system: NCI-H522 lung
[34] = system: NCI/ADR-RES ovarian
[35] = system: OVCAR-3 ovarian
[36] = system: OVCAR-4 ovarian
[37] = system: OVCAR-5 ovarian
[38] = system: OVCAR-8 ovarian
[39] = system: PC-3 prostate
[40] = system: RPMI-8226 leukemia
[41] = system: RXF 393 renal
[42] = system: SF-268 CNS
[43] = system: SF-295 CNS
[44] = system: SF-539 CNS
[45] = system: SK-MEL-2 melanoma
[46] = system: SK-MEL-28 melanoma
[47] = system: SK-MEL-5 melanoma
[48] = system: SK-OV-3 ovarian
[49] = system: SN12C renal
[50] = system: SNB-19 CNS
[51] = system: SNB-75 CNS
[52] = system: SR leukemia
[53] = system: SW-620 colon
[54] = system: T-47D breast
[55] = system: TK-10 renal
[56] = system: U251 CNS
[57] = system: UACC-257 melanoma
[58] = system: UACC-62 melanoma
[59] = system: UO-31 renal

Compound CC(C)NC(=O)c1cc(-c2ccc(NC(=O)Nc3ccc(N4CCN(C)CC4)c(C(F)(F)F)c3)cc2)nc2cccnc12 has a GI50 [1] of 1.65 µM, a TGI [1] of 3.34 µM and a GI50 [2] of 13.5 µM. The TGI [2] was 19.3 µM, the GI50 [3] was 6.5 µM and the TGI [3] was 12.8 µM. It also gave a GI50 [4] of 2.03 µM, a TGI [4] of 3.74 µM and a GI50 [5] of 1.37 µM. It also gave a TGI [5] of 6.31 µM, a GI50 [6] of 1.96 µM and a TGI [6] of 3.74 µM. For the same compound, the GI50 [7] was 0.539 µM, the TGI [7] was 3.82 µM and the GI50 [8] was 2.37 µM. The TGI [8] was 5.56 µM, the GI50 [9] was 2.18 µM and the TGI [9] was 4.15 µM. The GI50 [10] was 2.19 µM, the TGI [10] was 4.3 µM and the GI50 [11] was 2.09 µM. For the same compound, the TGI [11] was 3.96 µM, the GI50 [12] was 2.06 µM and the TGI [12] was 3.92 µM. The GI50 [13] was 2.1 µM, the TGI [13] was 4.2 µM and the GI50 [14] was 0.572 µM. It also gave a TGI [14] of 3.18 µM, a GI50 [15] of 2.24 µM and a TGI [15] of 4.73 µM. For the same compound, the GI50 [16] was 0.98 µM, the TGI [16] was 2.94 µM and the GI50 [17] was 1.36 µM. It also gave a TGI [17] of 7.5 µM, a GI50 [18] of 1.95 µM and a TGI [18] of 3.98 µM. For the same compound, the GI50 [19] was 1.74 µM, the TGI [19] was 3.55 µM and the GI50 [20] was 2.79 µM. It also gave a TGI [20] of 33.4 µM, a GI50 [21] of 2.43 µM and a TGI [21] of 5.12 µM. The GI50 [22] was 1.95 µM, the TGI [22] was 3.62 µM and the GI50 [23] was 2 µM. For the same compound, the TGI [23] was 4.13 µM, the GI50 [24] was 1.65 µM and the TGI [24] was 3.32 µM. It also gave a GI50 [25] of 0.397 µM, a TGI [25] of 2.79 µM and a GI50 [26] of 0.82 µM. For the same compound, the TGI [26] was 2.03 µM, the GI50 [27] was 1.94 µM and the TGI [27] was 3.88 µM. For the same compound, the GI50 [28] was 0.801 µM, the TGI [28] was 2.29 µM and the GI50 [29] was 1.05 µM. For the same compound, the TGI [29] was 4.19 µM, the GI50 [30] was 6.13 µM and the TGI [30] was 14.8 µM. The GI50 [31] was 2.23 µM, the TGI [31] was 4.44 µM and the GI50 [32] was 2.11 µM. The TGI [32] was 4.04 µM, the GI50 [33] was 2.01 µM and the TGI [33] was 4.02 µM. For the same compound, the GI50 [34] was 3.29 µM, the TGI [34] was 9.35 µM and the GI50 [35] was 1.91 µM. For the same compound, the TGI [35] was 3.94 µM, the GI50 [36] was 2.21 µM and the TGI [36] was 5.18 µM. It also gave a GI50 [37] of 1.98 µM, a TGI [37] of 3.81 µM and a GI50 [38] of 2.16 µM. For the same compound, the TGI [38] was 4.81 µM, the GI50 [39] was 1.82 µM and the TGI [39] was 4.81 µM. For the same compound, the GI50 [40] was 2 µM, the TGI [40] was 7.82 µM and the GI50 [41] was 1.07 µM. It also gave a TGI [41] of 2.89 µM, a GI50 [42] of 6.09 µM and a TGI [42] of 16.8 µM. For the same compound, the GI50 [43] was 1.83 µM, the TGI [43] was 3.57 µM and the GI50 [44] was 1.51 µM. It also gave a TGI [44] of 3.06 µM, a GI50 [45] of 2.72 µM and a TGI [45] of 6.5 µM. For the same compound, the GI50 [46] was 1.98 µM, the TGI [46] was 3.68 µM and the GI50 [47] was 2.07 µM. The TGI [47] was 3.76 µM, the GI50 [48] was 4.85 µM and the TGI [48] was 16.2 µM. The GI50 [49] was 1.81 µM, the TGI [49] was 3.53 µM and the GI50 [50] was 2.09 µM. It also gave a TGI [50] of 4.75 µM, a GI50 [51] of 0.657 µM and a TGI [51] of 4.94 µM. It also gave a GI50 [52] of 2.29 µM, a TGI [52] of 7.45 µM and a GI50 [53] of 1.79 µM. The TGI [53] was 3.74 µM, the GI50 [54] was 1.71 µM and the TGI [54] was 31 µM. The GI50 [55] was 2.24 µM, the TGI [55] was 4.18 µM and the GI50 [56] was 1.74 µM. For the same compound, the TGI [56] was 3.55 µM, the GI50 [57] was 2.09 µM and the TGI [57] was 4.2 µM. The GI50 [58] was 2.11 µM, the TGI [58] was 4.13 µM and the GI50 [59] was 1.76 µM. For the same compound, the TGI [59] was 3.39 µM.
